Read-outs that look alike come from different tables or passages of the source.
Columns and labels:
[1] = system: Haemophilus influenzae Holt; test: standard agar-dilution assay, MIC; format: cell-based; settings: ampicillin sensitive strain
Protocol: (§1) The MIC's in Table III were determined by standard agar-dilutionassays. The MIC's in Table IV were obtained using a conventional broth-dilution microtiter test.
^d Ampicillinsensitive strain

[2] = system: Staphylococcus aureus V41; test: standard agar-dilution assay, MIC; format: cell-based; settings: Staphylococcus aureus V41, penicillin resistant strain
Protocol: as §1
^b Penicillinresistant strain

[3] = system: Haemophilus influenzae R252; test: standard agar-dilution assay, MIC; format: cell-based; settings: Haemophilus influenzae R252, ampicillin resistant strain
Protocol: as §1
^e Ampicillinresistant strain

[4] = system: Staphylococcus aureus X400; test: standard agar-dilution assay, MIC; format: cell-based; settings: Staphylococcus aureus X400, methicillin resistant strain
Protocol: as §1
^c Methicillinresistant-strain

[5] = system: Streptococcus pyogenes C203; test: experimental bacterial infection in mice, ED50; format: in vivo; settings: doses given 1 and 5 hours postinfection, read-out: ED50 (effective dose to protect 50% of the test animals)
Protocol: The ester derivatives of this invention have shown in vivo antimicrobial activity against experimental bacterial infections caused by gram-positivebacteria. When two doses of test compound were administered to mice with experimental infections, the activity observed was measured as an ED50 value [effective dose in mg/kg to protect 50% of the test animals: see Warren Wick, et al., J. Bacteriol. 81, 233-235 (1961)].
^a mg/kg × 2; doses given 1 and 5 hours postinfection

[6] = system: Staphylococcus epidermidis EPI2; test: standard agar-dilution assay, MIC; format: cell-based
Protocol: as §1

[7] = system: Staphylococcus aureus S13E; test: standard agar-dilution assay, MIC; format: cell-based
Protocol: as §1

[8] = system: Streptococcus pyogenes C203; test: standard agar-dilution assay, MIC; format: cell-based
Protocol: as §1

Streptococcus Group 9960 = test: standard agar-dilution assay, MIC; format: cell-based
Protocol: as §1

[9] = system: Streptococcus Group D X66; test: standard agar-dilution assay, MIC; format: cell-based
Protocol: as §1

[10] = system: Staphylococcus aureus X1.1; test: standard agar-dilution assay, MIC; format: cell-based
Protocol: as §1

[11] = system: Staphylococcus epidermidis EPI1; test: standard agar-dilution assay, MIC; format: cell-based
Protocol: as §1

[12] = system: Streptococcus pneumoniae Park I; test: standard agar-dilution assay, MIC; format: cell-based
Protocol: as §1

Staphylococcus aureus = test: conventional broth-dilution microtiter test, MIC; format: cell-based
Protocol: as §1

[13] = system: Pasteurella multocida 60A; test: conventional broth-dilution microtiter test, MIC; format: cell-based; settings: avian isolate
Protocol: as §1

Mycoplasma gallisepticum = test: conventional broth-dilution microtiter test, MIC; format: cell-based
Protocol: as §1

Mycoplasma synoviae = test: conventional broth-dilution microtiter test, MIC; format: cell-based
Protocol: as §1

Mycoplasma hyorhinis = test: conventional broth-dilution microtiter test, MIC; format: cell-based
Protocol: as §1

[14] = system: Pasteurella multocida 17E; test: conventional broth-dilution microtiter test, MIC; format: cell-based; settings: bovine isolate
Protocol: as §1

Streptococcus sp. 80 = test: conventional broth-dilution microtiter test, MIC; format: cell-based
Protocol: as §1

SMILES	MIC (minimal inhibitory concentration) [1]	MIC (minimal inhibitory concentration) [2]	MIC (minimal inhibitory concentration) [3]	MIC (minimal inhibitory concentration) [4]	ED50 ([5]; C203, mice, oral) [mg/kg]	MIC (minimal inhibitory concentration) [6]	MIC (minimal inhibitory concentration) [7]	MIC (minimal inhibitory concentration) [8]	MIC (minimal inhibitory concentration) (Streptococcus Group 9960)	MIC (minimal inhibitory concentration) [9]	MIC (minimal inhibitory concentration) [10]	MIC (minimal inhibitory concentration) [11]	MIC (minimal inhibitory concentration) [12]	MIC (minimal inhibitory concentration) (Staphylococcus aureus)	MIC (minimal inhibitory concentration) [13]	MIC (minimal inhibitory concentration) (Mycoplasma gallisepticum)	MIC (minimal inhibitory concentration) (Mycoplasma synoviae)	MIC (minimal inhibitory concentration) (Mycoplasma hyorhinis)	MIC (minimal inhibitory concentration) [14]	MIC (minimal inhibitory concentration) (Streptococcus sp. 80)	also measured
CCC(=O)OC1CC(=O)OC(CC)C(C)C=C(C)C=CC(=O)C(C)CC(CC=O)C(OC2OC(C)C(OC3CC(C)(O)C(OC(=O)CC)C(C)O3)C(N(C)C)C2O)C1C (stereo not shown) [Compound 25, 3,4"-Di-O-propionyl-DMOT]	32	1	16	1	36	2	0.5	0.5	1	1	0.5	1	0.25	1.56	50	0.195	0.39	1.56	25	1.56	ED50 ([5]; C203, sc, mice, subcutaneous): > 30 mg/kg
CCC1OC(=O)CC(O)C(C)C(OC2OC(C)C(OC3CC(C)(O)C(OC(C)=O)C(C)O3)C(N(C)C)C2O)C(CC=O)CC(C)C(=O)C=CC(C)=CC1COC(C)=O (stereo not shown) [Compound 2, 23,4"-Di-O-Acetyl-DMT]	16	0.25	16	1	117	1	0.5	0.25	0.5	0.5	0.5	1	0.125	0.78	12.5	0.097	0.39	0.78	6.25	0.39	–
CCC1OC(=O)CC(O)C(C)C(OC2OC(C)C(OC3CC(C)(O)C(OC(=O)Cc4ccccc4)C(C)O3)C(N(C)C)C2O)C(CC=O)CC(C)C(=O)C=CC(C)=CC1COC(=O)Cc1ccccc1 (stereo not shown) [Compound 6, 23,4"-Di-O-Phenylacetyl-DMT]	64	1	64	1	–	1	1	0.25	0.5	0.5	1	1	0.125	1.56	> 50	≤ 0.048	0.39	0.195	50	0.39	–
CCC1OC(=O)CC(O)C(C)C(OC2OC(C)C(OC3CC(C)(O)C(OC(=O)CC(C)C)C(C)O3)C(N(C)C)C2O)C(CC=O)CC(C)C(=O)C=CC(C)=CC1C (stereo not shown) [Compound 19, 4"-O-Isovaleryl-DMOT]	8	1	8	1	–	1	1	0.25	1	1	1	1	0.03	3.12	12.5	0.195	0.39	0.39	6.25	0.195	–
CCC(=O)OC1C(C)OC(OC2C(C)OC(OC3C(CC=O)CC(C)C(=O)C=CC(C)=CC(C)C(CC)OC(=O)CC(O)C3C)C(O)C2N(C)C)CC1(C)O (stereo not shown) [Compound 24, 4"-O-Propionyl-DMOT]	8	1	8	0.5	71	1	0.5	0.5	0.5	1	0.5	0.5	0.125	0.78	12.5	0.097	0.78	3.12	6.25	0.39	ED50 ([5]; C203, sc, mice, subcutaneous): 22 mg/kg
CCC(=O)OC1CC(=O)OC(CC)C(CO)C=C(C)C=CC(=O)C(C)CC(CC=O)C(OC2OC(C)C(OC3CC(C)(O)C(OC(=O)CC)C(C)O3)C(N(C)C)C2O)C1C (stereo not shown) [Compound 17, 3,4"-Di-O-Propionyl-DMT]	16	1	8	1	–	1	0.5	0.25	1	1	0.5	0.5	0.06	1.56	50	0.097	0.195	3.12	25	0.78	–
CCC1OC(=O)CC(O)C(C)C(OC2OC(C)C(OC3CC(C)(O)C(OC(C)=O)C(C)O3)C(N(C)C)C2OC(C)=O)C(CC=O)CC(C)C(=O)C=CC(C)=CC1COC(C)=O (stereo not shown) [Compound 1, 2',4",23-Tri-O-Acetyl-DMT]	16	0.5	16	2	179	2	1	0.5	1	1	1	1	0.125	3.12	25	0.39	0.78	1.56	12.5	0.78	–

— patent US4436733A, “4"- And 3-ester derivatives of DMT and DMOT” (Eli Lilly and Company, priority 1982, dated 1984)
